Assay results taken from patent US8815499B2, “In situ detoxification of fermentation inhibitors with reducing agents” (priority 2009, dated 2014).
Read-outs that look alike come from different tables or passages of the source.

Columns and labels:
[1] = tested on: yeast Saccharomyces cerevisiae; test: Fermentation of sugar solution with model inhibitor coniferyl aldehyde; settings: sugar solution with coniferyl aldehyde (2.5 mM), untreated, FIG. 12
Protocol: (§1) A sugar solution (glucose 18 g/L, mannose 14 g/L) with a coniferyl aldehyde concentration of 2.5 mM was prepared. Half of the solution was treated with 10 mM of sodium dithionite and the rest of the solution was left untreated as a reference. Fermentation was performed with the yeast Saccharomyces cerevisiae as described in the previous Examples.

[2] = as above; settings: Saccharomyces cerevisiae
Protocol: as §1

[3] = tested on: yeast Saccharomyces cerevisiae
Protocol: A spruce slurry was prepared an subjected to acidic hydrolysis as described in Example 6. […] Sodium dithionite was added to different samples to concentrations of 2.5, 5, 7.5, 10, 12.5, and 15 mM. The treatments were performed at 21° C. for 5 min with stirring. In addition, treatments with 0.1% (7.9 mM) and 1% (79.3 mM) sodium sulphite were performed. […] Furthermore, a sugar solution (glucose 18 g/L, mannose 14 g/L) was prepared to evaluate if the effect of the sodium dithionite treatment was due to an effect on the hydrolysate or the ethanolic fermentation with yeast. Half of the sugar solution was treated with 10 mM sodium dithionite, whereas the rest was left untreated as a reference. The volumes of treated and untreated samples were equalized with water and the pH was adjusted to pH 5.5 prior to the fermentation. Fermentation was performed with the yeast Saccharomyces cerevisiae as described in the previous Examples.
Spruce hydrolysate samples were prepared as in Example 6.
Two samples were treated with DTT to 2 and 20 mM, respectively, two samples were treated with ascorbic acid to 10 and 100 mM, respectively and two samples were treated with glutathione to 1 and 10 mM, respectively.
The treatment time was 3 h for all samples and fermentation was performed as described in the previous Examples.

[4] = tested on: yeast Saccharomyces cerevisiae; test: Simultaneous saccharification and fermentation (SSF) of sugarcane bagass slurry; type: cell-based; settings: 7.5 and 10 mM, FIG. 9
Protocol: SSF experiments were also performed with sugarcane bagass slurries. […] Reducing agents, dithionite and sulphite, respectively, were added 10 min prior to inoculum in concentrations of studied 7.5 and 10 mM. The ethanol concentration was measured after 13 and 45 hours according to the protocol described in Example 1.

[5] = tested on: baker's yeast (Saccharomyces cerevisiae); type: cell-based
Protocol: The pH of the sugarcane bagass and spruce hydrolysates were adjusted to 5.5 with a 5 M solution of sodium hydroxide. The conditioning of each hydrolysate was performed in eight 100-mL glass vessels equipped with magnetic stirrer bars. 26 mL hydrolysate was added to all vessels, and the vessels were placed on a magnetic stirrer plate (IKA-Werke, Staufen, Germany). Sodium dithionite (chemical grade; >87%, Merck, Darmstadt, Germany) was added to hydrolysates in the concentrations 5 and 10 mM. Additions of sodium sulphite to 5 and 10 mM were also performed. The additions were made at room temperature (23° C.) and the samples were kept for 10 min with stirring. The experiments were performed in duplicates.
The efficiency of the additions of the reducing agents was compared with alkali detoxification.
Ethanol measurements were performed by using an enzymatic kit (Ethanol UV-method, Boehringer Mannheim GmbH, Mannheim, Germany). Fermentation experiments were performed to evaluate the effectiveness of the additions and treatments. For comparison, untreated hydrolysates were included in the fermentation experiments as well as reference fermentations of sugar-based medium with an amount of fermentable sugars (i.e. glucose and mannose) corresponding to that in the hydrolysate samples. The fermentations were carried out using baker's yeast (Saccharomyces cerevisiae) (Jästbolaget AB, Rotebro, Sweden). The yeast inoculum was prepared in 750-mL cotton-plugged shake flasks with 300 mL YEPD medium ([…], 2% D-glucose). The flasks were inoculated and incubated with agitation at 30° C. for approximately 12 h. The cells were harvested in the late exponential growth phase by centrifugation (Hermla Z206A, Hermle Labortechnik GmbH, Wehingen, Germany) at 1,500 g for 5 min. The cells were resuspended in an appropriate amount of sterile water to achieve an inoculum consisting of 2.0 g/L (cell dry weight) in all fermentation vessels. The fermentation was carried out in 14 25-mL glass flasks equipped with magnets for stirring and sealed with rubber plugs pierced with cannulas for letting out carbon dioxide. The hydrolysate samples (23.75 mL), or alternatively the sugar solution for reference fermentations, were added to the fermentation flasks along with 0.5 mL of a nutrient solution (150 g/L yeast extract, 75 g/L (NH4)2HPO4, 3.75 g/L MgSO4.7 H2O, 238.2 g/L NaH2PO4.H2O), and 0.75 mL of yeast inoculum. The flasks were incubated at 30° C. in a water bath with magnetic stirring (IKA-Werke). Samples for measurement of sugars and ethanol were withdrawn during the fermentation. The glucose levels during the fermentation were estimated by using a glucometer (Glucometer Elite XL, Bayer AG, Leverkusen, Germany).

[6] = tested on: yeast Saccharomyces cerevisiae; test: Simultaneous saccharification and fermentation (SSF) of spruce slurry; type: cell-based; settings: for Ethanol concentration: after 70 hours
Protocol: Addition of sodium dithionite and sodium sulphite was tested in an SSF process. Spruce was pretreated as described in Example 1 above. The spruce slurry was adjusted to pH 5.4 with a 5 M solution of sodium hydroxide. Ten 250-mL shake flasks equipped with magnetic stirrer bars were filled with 100 g of spruce slurry. Sodium dithionite or sodium sulphite was added to the slurries to final concentrations of 7.5 and 10 mM. The additions were performed at room temperature (23° C.) for 10 min with stirring. Duplicate experiments were made. Cellulase and cellobiase preparations were prepared and added to the slurry using the enzyme activity loadings as described in Example 1 above. Further, the yeast inoculum was prepared according to Example 1 above. Inoculums were added to give a start concentration of 2.0 g/L (cell dry weight) in every flask. No source of extra nutrients was added. For comparison, two flasks with spruce slurry to which no reducing agents had been added were included in the experiment. The flasks were incubated at 35° C. for 69 h in a water bath with magnetic stirring. The flasks were sealed with Parafilm (Pechiney Plastic Packaging Company, Chicago, Ill., USA) to prevent evaporation of ethanol. Samples were withdrawn for analysis of ethanol according to Example 1 above.
A spruce slurry was prepared according to Examples 1 and 2 above. Different flasks were filled with 100 g each of the spruce slurry and were subjected to a SSF process according to Example 2 above, but with different amounts of dithionite and sulphite added. The produced ethanol was monitored during the fermentation. […]

[7] = bagass hydrolysate, 6 h fermentation, 10 mM
[8] = spruce hydrolysate, 14 h fermentation, 10 mM

COc1cc(/C=C/C=O)ccc1O [coniferyl aldehyde, reference compound]
Glucose consumption [1]: approximately no reduced glucose concentration | viability at 2.25 h, 2.5 mM [2]: 1.7% | viability at 7 h, 2.5 mM [2]: 0%

O=S([O-])[O-].[Na+].[Na+] [Sulphite, sodium sulphite]
Fermentability (glucose consumption) ([3]; acid spruce hydrolysate, 1% (79.3 mM), FIG. 11): better fermentability compared to the untreated hydrolysate | Fermentability (ethanol production after 13 and 45 hours) [4]: improved fermentability | Balanced ethanol yield [5, 7]: 0.21 g EtOH/Σglucose & mannose prior to detoxification | Productivity [5, 7]: 2.9 g EtOH × L^−1 × h^−1 | Yield [5, 7]: 0.32 g EtOH/g consumed glucose & mannose | Ethanol production ([5]; bagass hydrolysate, 6 h fermentation, FIG. 4): high ethanol production | Glucose consumption rates and amounts of ethanol produced ([5]; spruce hydrolysate, 10 mM, FIGS. 1 and 2): substantial improvement | Balanced ethanol yield [5, 8]: 0.16 g EtOH/Σglucose & mannose prior to detoxification | Productivity [5, 8]: 1.2 g EtOH × L^−1 × h^−1 | Yield [5, 8]: 0.29 g EtOH/g consumed glucose & mannose | Ethanol concentration ([6]; 2.5 mM): did not result in as high final ethanol concentrations | Ethanol concentration ([6]; 5 mM): did not result in as high final ethanol concentrations | Ethanol concentration ([6]; 7.5 mM): 35 to 40 g/L | Ethanol concentration ([6]; 10 mM): 35 to 40 g/L | Ethanol concentration ([6]; 15 mM): about 40 g/L | Ethanol concentration ([6]; 20 mM): about 40 g/L | Ethanol concentration ([6]; 30 mM): about 40 g/L | Ethanol production compared to the untreated hydrolysate ([6]; 7.5 and 10 mM, FIG. 5): higher ethanol production | Time after which ethanol formation leveled off ([6]; 7.5 and 10 mM, FIG. 5): 20 h

N [NH4OH, ammonium hydroxide, reference compound]
Ethanol concentration ([3]; NH4OH treatment, 2.75 h): 4.56 g/L | Productivity ([3]; NH4OH treatment, 2.75 h): 1.66 g EtOH × L^−1 × h^−1 | Yield ([3]; NH4OH treatment, 2.75 h): 0.30 g EtOH/g consumed glucose and mannose | Ethanol concentration ([3]; NH4OH treatment, 4.25 h): 10.75 g/L | Productivity ([3]; NH4OH treatment, 4.25 h): 2.53 g EtOH × L^−1 × h^−1 | Yield ([3]; NH4OH treatment, 4.25 h): 0.42 g EtOH/g consumed glucose and mannose | Ethanol concentration ([3]; NH4OH treatment, 6.25 h): 9.81 g/L | Productivity ([3]; NH4OH treatment, 6.25 h): 1.57 g EtOH × L^−1 × h^−1 | Yield ([3]; NH4OH treatment, 6.25 h): 0.32 g EtOH/g consumed glucose and mannose | Ethanol concentration ([3]; NH4OH treatment, 9.25 h): 14.08 g/L | Productivity ([3]; NH4OH treatment, 9.25 h): 1.52 g EtOH × L^−1 × h^−1 | Yield ([3]; NH4OH treatment, 9.25 h): 0.47 g EtOH/g consumed glucose and mannose | Viable cells ([3]; acid spruce hydrolysate, NH4OH treatment, fermentation time 2.25 h): 95.3 ± 3.0% | Yield ([5]; bagass hydrolysate, 6 h fermentation, NH4OH detoxification): 0.34 g EtOH/g consumed glucose & mannose | Yield ([5]; spruce hydrolysate, 14 h fermentation, NH4OH detoxification): 0.43 g EtOH/g consumed glucose & mannose

N[C@@H](CCC(=O)N[C@@H](CS)C(=O)NCC(=O)O)C(=O)O [glutathione, reduced glutathione]
Fermentability ([3]; acid spruce hydrolysate, 10 mM, treatment time 3 h): improved fermentability

O[C@H](CS)[C@H](O)CS (racemic) [DTT, Dithiothreitol]
Fermentability ([3]; acid spruce hydrolysate, 20 mM, treatment time 3 h): improved fermentability | Glucose consumption rate compared with the untreated sample ([3]; acid spruce hydrolysate, 20 mM, treatment time 3 h, FIG. 13): higher glucose consumption rate

O=C1O[C@H]([C@@H](O)CO)C(O)=C1O [ascorbic acid]
Fermentability ([3]; acid spruce hydrolysate, 100 mM, treatment time 3 h): improved fermentability
